Test results as given in patent US20140329679A1, “HERBICIDAL COMPOSITIONS COMPRISING TRIFLUOROME THANESULFONANILIDES AND SAFENERS” (priority 2011, published 2014).

Each molecule was assayed on wheat (variety Hereward) (assay: Pre-emergence safening on wheat, seed treated with safener, general crop injury). Settings: 250 g/ha compound of formula (I) sprayed the day after planting; seed treated with cloquintocet-mexyl at 0.25 g per kg seed; evaluated after 21 days; mean of two replicates.
Type: in vivo
Experimental: (§1) Maize (variety Claxxon) and wheat (variety Hereward) seeds were treated with a herbicide safener at a rate of 0.2 g safener per kg seed (maize) and 0.25 g safener per kg seed (wheat) prior to sowing. Treated and untreated seeds were sown into standard soil in troughs. The safeners used were N-(2-methoxybenzoyl)-4-Rmethylaminocarbonyl)aminoThenzenesulfonamide (safener A in Table 2) and cloquintocet-mexyl.
(§2) The day after planting the troughs were sprayed with an aqueous spray solution prepared by dissolving the technical active ingredient in an organic solvent and diluting with deionised water to give a final dose of 250 g/ha of a compound of formula (I).
(§3) The spray solution was applied with a cabinet tracksprayer with a flat fan nozzle (Teejet 11002VS) and an application volume of 200 L/ha (at 2 bar).
(§4) The test plants were then grown on in a glasshouse under controlled conditions (at 24/18° C. day/night; 16 hours light; 65% humidity) and watered twice a day. After 21 days the test was evaluated for general crop injury (100% equals total damage to plant; 0% equals no damage to plant).
(§5) Results are shown below in Table 2 as the mean % visual phytotoxicity of two replicates.

Compound | Percentage damage, wheat treated with cloquintocet-mexyl
CCOC(=O)N(c1ccccc1CN1CCCCS1(=O)=O)S(=O)(=O)C(F)(F)F [Compound 133] | 5%
CCCC(=O)N(c1ccccc1CN1CCCCC1=O)S(=O)(=O)C(F)(F)F [Compound 6] | 10%
O=C1COCCN1Cc1ccccc1NS(=O)(=O)C(F)(F)F [Compound 41] | 10%
O=C1CCCCN1Cc1ccccc1NS(=O)(=O)C(F)(F)F [Compound 5] | 20%
CC1(C)CN(Cc2ccccc2NS(=O)(=O)C(F)(F)F)C(=O)O1 [Compound 85] | 15%
CCOC(=O)N(c1ccccc1CN1CCCN(C)S1(=O)=O)S(=O)(=O)C(F)(F)F [Compound 146] | 17.5%
CC(C)COC(=O)N(c1ccccc1CN1CCCN(C)S1(=O)=O)S(=O)(=O)C(F)(F)F [Compound 147] | 5%
CC1(C)CC(=O)N(Cc2ccccc2N(C(=O)OCCl)S(=O)(=O)C(F)(F)F)O1 [Compound 21] | 5%
CCOC(=O)N(c1ccccc1CN1CCCCC1=O)S(=O)(=O)C(F)(F)F [Compound 7] | 30%
CC1(C(F)(F)F)CCN(Cc2ccccc2N(C(=O)OCCl)S(=O)(=O)C(F)(F)F)C(=O)O1 (stereo not shown) [Compound 102] | 0%
CCC(=O)N(c1ccccc1CN1CCCC(SC)C1=O)S(=O)(=O)C(F)(F)F (stereo not shown) [Compound 16] | 15%
CC1(C)CC(=O)N(Cc2ccccc2NS(=O)(=O)C(F)(F)F)O1 [Compound 20] | 15%
O=C1CCCN1Cc1ccccc1NS(=O)(=O)C(F)(F)F [Compound 1] | 5%
O=C1NCCCN1Cc1ccccc1NS(=O)(=O)C(F)(F)F [Compound 53] | 10%
CCOC(=O)N(c1ccccc1CN1CCC(C)(C(F)(F)F)OC1=O)S(=O)(=O)C(F)(F)F (stereo not shown) [Compound 103] | 0%
CN1CCCN(Cc2ccccc2N(C(=O)OCCl)S(=O)(=O)C(F)(F)F)S1(=O)=O [Compound 145] | 5%

Same assay, conditions: 250 g/ha compound of formula (I) sprayed the day after planting; seed without safener; evaluated after 21 days; mean % visual phytotoxicity of two replicates

Compound | Percentage damage, untreated wheat
CCOC(=O)N(c1ccccc1CN1CCCCS1(=O)=O)S(=O)(=O)C(F)(F)F [Compound 133] | 25%
CCCC(=O)N(c1ccccc1CN1CCCCC1=O)S(=O)(=O)C(F)(F)F [Compound 6] | 30%
O=C1COCCN1Cc1ccccc1NS(=O)(=O)C(F)(F)F [Compound 41] | 35%
O=C1CCCCN1Cc1ccccc1NS(=O)(=O)C(F)(F)F [Compound 5] | 45%
CC1(C)CN(Cc2ccccc2NS(=O)(=O)C(F)(F)F)C(=O)O1 [Compound 85] | 40%
CCOC(=O)N(c1ccccc1CN1CCCN(C)S1(=O)=O)S(=O)(=O)C(F)(F)F [Compound 146] | 40%
CC(C)COC(=O)N(c1ccccc1CN1CCCN(C)S1(=O)=O)S(=O)(=O)C(F)(F)F [Compound 147] | 25%
CC1(C)CC(=O)N(Cc2ccccc2N(C(=O)OCCl)S(=O)(=O)C(F)(F)F)O1 [Compound 21] | 20%
CCOC(=O)N(c1ccccc1CN1CCCCC1=O)S(=O)(=O)C(F)(F)F [Compound 7] | 50%
CC1(C(F)(F)F)CCN(Cc2ccccc2N(C(=O)OCCl)S(=O)(=O)C(F)(F)F)C(=O)O1 (stereo not shown) [Compound 102] | 10%
CCC(=O)N(c1ccccc1CN1CCCC(SC)C1=O)S(=O)(=O)C(F)(F)F (stereo not shown) [Compound 16] | 40%
CC1(C)CC(=O)N(Cc2ccccc2NS(=O)(=O)C(F)(F)F)O1 [Compound 20] | 25%
O=C1CCCN1Cc1ccccc1NS(=O)(=O)C(F)(F)F [Compound 1] | 35%
O=C1NCCCN1Cc1ccccc1NS(=O)(=O)C(F)(F)F [Compound 53] | 40%
CCOC(=O)N(c1ccccc1CN1CCC(C)(C(F)(F)F)OC1=O)S(=O)(=O)C(F)(F)F (stereo not shown) [Compound 103] | 15%
CN1CCCN(Cc2ccccc2N(C(=O)OCCl)S(=O)(=O)C(F)(F)F)S1(=O)=O [Compound 145] | 10%

The molecules below were run on soya (variety Nikko) (assay: Post-emergence crop safening on soya, general crop injury). Settings: compound of formula (I) alone at 200 g/ha, post-emergence spray at 2-3 leaf stage, evaluated after 21 days; 100% = total damage, 0% = no damage; single replicate.
Type: in vivo
Experimental: Maize (variety Garland) and soya (variety Nikko) seeds were sown into standard soil in pots and cultivated under controlled conditions in a glasshouse (at 24/18° C. day/night; 16 hours light; 65% humidity). […] All the compounds used for the spray solution were present as technical material and the safeners were either an EC, SC or WP formulation respectively or technical material. In addition a non-ionic surfactant (Tween 20) was added to form a 0.25% v/v solution. The spray solution was applied with a cabinet tracksprayer with a flat fan nozzle (Teejet 11002VS) and an application volume of 200 L/ha (at 2 bar). The test plants were then grown on in a glasshouse under controlled conditions (at 24/18° C. day/night; 16 hours light; 65% humidity) and watered twice a day. […] Results are shown below in Table 3 as the mean % visual phytotoxicity of two replicates and in Table 4 as the mean % visual phytotoxicity of a single replicate.

Compound | Percentage damage caused to soya (mean % visual phytotoxicity, general crop injury)
O=C1COCCN1Cc1ccccc1NS(=O)(=O)C(F)(F)F [Compound 41] | 30%
CCC1(C(F)(F)F)CCN(Cc2ccccc2NS(=O)(=O)C(F)(F)F)C(=O)O1 (stereo not shown) [Compound 106] | 15%

What follows are molecules tested on Maize (variety Garland) (assay: Post-emergence crop safening on maize, general crop injury). Settings: post-emergence spray at 2-3 leaves; 500 g/ha Compound 41 alone or with 100 g/ha safener; 0.25% v/v Tween 20; evaluated after 21 days; mean of two replicates.
Type: in vivo
Experimental: Maize (variety Garland) and soya (variety Nikko) seeds were sown into standard soil in pots and cultivated under controlled conditions in a glasshouse (at 24/18° C. day/night; 16 hours light; 65% humidity).
When the plants were at the vegetative stage of 2-3 leaves they were sprayed with an aqueous spray solution containing a compound of formula (I) alone and in combination with a number of different herbicide safeners. All the compounds used for the spray solution were present as technical material and the safeners were either an EC, SC or WP formulation respectively or technical material. In addition a non-ionic surfactant (Tween 20) was added to form a 0.25% v/v solution.
as §3, §4
Results are shown below in Table 3 as the mean % visual phytotoxicity of two replicates and in Table 4 as the mean % visual phytotoxicity of a single replicate.

Compound | Percentage damage caused to maize
O=C1COCCN1Cc1ccccc1NS(=O)(=O)C(F)(F)F [Compound 41] | 25%

What follows are molecules tested on Maize (variety Claxxon) (assay: Pre-emergence safening on corn, seed treated with safener, general crop injury). Settings: 250 g/ha compound of formula (I) sprayed the day after planting; seed treated with safener A at 0.2 g per kg seed; evaluated after 21 days; mean of two replicates.
Type: in vivo
Experimental: as §1, §2, §3, §4, §5

Compound | Percentage damage, corn treated with safener A
CCOC(=O)N(c1ccccc1CN1CCCCS1(=O)=O)S(=O)(=O)C(F)(F)F [Compound 133] | 10%
CCCC(=O)N(c1ccccc1CN1CCCCC1=O)S(=O)(=O)C(F)(F)F [Compound 6] | 5%
O=C1COCCN1Cc1ccccc1NS(=O)(=O)C(F)(F)F [Compound 41] | 5%
O=C1CCCCN1Cc1ccccc1NS(=O)(=O)C(F)(F)F [Compound 5] | 25%
CC1(C)CN(Cc2ccccc2NS(=O)(=O)C(F)(F)F)C(=O)O1 [Compound 85] | 15%
CCOC(=O)N(c1ccccc1CN1CCCN(C)S1(=O)=O)S(=O)(=O)C(F)(F)F [Compound 146] | 0%
CC(C)COC(=O)N(c1ccccc1CN1CCCN(C)S1(=O)=O)S(=O)(=O)C(F)(F)F [Compound 147] | 2.5%
CC1(C)CC(=O)N(Cc2ccccc2N(C(=O)OCCl)S(=O)(=O)C(F)(F)F)O1 [Compound 21] | 20%
CCOC(=O)N(c1ccccc1CN1CCCCC1=O)S(=O)(=O)C(F)(F)F [Compound 7] | 10%
CC1(C(F)(F)F)CCN(Cc2ccccc2N(C(=O)OCCl)S(=O)(=O)C(F)(F)F)C(=O)O1 (stereo not shown) [Compound 102] | 0%
CCC(=O)N(c1ccccc1CN1CCCC(SC)C1=O)S(=O)(=O)C(F)(F)F (stereo not shown) [Compound 16] | 2.5%
CC1(C)CC(=O)N(Cc2ccccc2NS(=O)(=O)C(F)(F)F)O1 [Compound 20] | 0%
O=C1CCCN1Cc1ccccc1NS(=O)(=O)C(F)(F)F [Compound 1] | 5%
O=C1NCCCN1Cc1ccccc1NS(=O)(=O)C(F)(F)F [Compound 53] | 5%
CCOC(=O)N(c1ccccc1CN1CCC(C)(C(F)(F)F)OC1=O)S(=O)(=O)C(F)(F)F (stereo not shown) [Compound 103] | 0%
CN1CCCN(Cc2ccccc2N(C(=O)OCCl)S(=O)(=O)C(F)(F)F)S1(=O)=O [Compound 145] | 0%

Same assay, conditions: 250 g/ha compound of formula (I) sprayed the day after planting; seed without safener; evaluated after 21 days; mean % visual phytotoxicity of two replicates

Compound | Percentage damage, untreated corn
CCOC(=O)N(c1ccccc1CN1CCCCS1(=O)=O)S(=O)(=O)C(F)(F)F [Compound 133] | 20%
CCCC(=O)N(c1ccccc1CN1CCCCC1=O)S(=O)(=O)C(F)(F)F [Compound 6] | 80%
O=C1COCCN1Cc1ccccc1NS(=O)(=O)C(F)(F)F [Compound 41] | 80%
O=C1CCCCN1Cc1ccccc1NS(=O)(=O)C(F)(F)F [Compound 5] | 55%
CC1(C)CN(Cc2ccccc2NS(=O)(=O)C(F)(F)F)C(=O)O1 [Compound 85] | 65%
CCOC(=O)N(c1ccccc1CN1CCCN(C)S1(=O)=O)S(=O)(=O)C(F)(F)F [Compound 146] | 22.5%
CC(C)COC(=O)N(c1ccccc1CN1CCCN(C)S1(=O)=O)S(=O)(=O)C(F)(F)F [Compound 147] | 15%
CC1(C)CC(=O)N(Cc2ccccc2N(C(=O)OCCl)S(=O)(=O)C(F)(F)F)O1 [Compound 21] | 30%
CCOC(=O)N(c1ccccc1CN1CCCCC1=O)S(=O)(=O)C(F)(F)F [Compound 7] | 98%
CC1(C(F)(F)F)CCN(Cc2ccccc2N(C(=O)OCCl)S(=O)(=O)C(F)(F)F)C(=O)O1 (stereo not shown) [Compound 102] | 5%
CCC(=O)N(c1ccccc1CN1CCCC(SC)C1=O)S(=O)(=O)C(F)(F)F (stereo not shown) [Compound 16] | 86%
CC1(C)CC(=O)N(Cc2ccccc2NS(=O)(=O)C(F)(F)F)O1 [Compound 20] | 40%
O=C1CCCN1Cc1ccccc1NS(=O)(=O)C(F)(F)F [Compound 1] | 30%
O=C1NCCCN1Cc1ccccc1NS(=O)(=O)C(F)(F)F [Compound 53] | 40%
CCOC(=O)N(c1ccccc1CN1CCC(C)(C(F)(F)F)OC1=O)S(=O)(=O)C(F)(F)F (stereo not shown) [Compound 103] | 10%
CN1CCCN(Cc2ccccc2N(C(=O)OCCl)S(=O)(=O)C(F)(F)F)S1(=O)=O [Compound 145] | 20%
